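Method: 48-hour compound exposure of cells in 96-well plates, five concentrations, linear interpolation of endpoints. GI50 is the concentration that inhibits growth by half.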 Calls of active or inactive are those of the source. No stated cut-off is given here; in the data, active = GI50 up to about 1.1 µM and inactive = higher.
What was measured:
Test in all cases: NCI-60 cell line screen, 48 h
[1] = test system: MCF7
[2] = test system: Malme-3M
[3] = test system: MDA-MB-231
[4] = test system: 786-0
[5] = test system: COLO 205
[6] = test system: MOLT-4
[7] = test system: HCT-116
[8] = test system: RPMI-8226
[9] = test system: HCT-15
[10] = test system: SN12C
[11] = test system: HCC 2998
[12] = test system: SK-MEL-2
[13] = test system: OVCAR-5
[14] = test system: LOX IMVI
[15] = test system: OVCAR-4
[16] = test system: PC-3
[17] = test system: UACC-257
[18] = test system: NCI/ADR-RES
[19] = test system: A549
[20] = test system: A498
[21] = test system: MDA-MB-435
[22] = test system: SF-295
[23] = test system: SW-620
[24] = test system: SNB-19
[25] = test system: NCI-H226
[26] = test system: HT-29
[27] = test system: KM12
[28] = test system: TK-10
[29] = test system: HOP-62
[30] = test system: NCI-H460
[31] = test system: SK-OV-3
[32] = test system: SR
[33] = test system: SK-MEL-28
[34] = test system: Hs-578T
[35] = test system: SF-539
[36] = test system: UACC-62
[37] = test system: OVCAR-8
[38] = test system: T47D
[39] = test system: K562
[40] = test system: U-251
[41] = test system: M14
[42] = test system: OVCAR-3
[43] = test system: UO-31
[44] = test system: MDA-N
[45] = test system: IGROV-1
[46] = test system: SNB-75
[47] = test system: SF-268
[48] = test system: EKVX
[49] = test system: NCI-H23
[50] = test system: SK-MEL-5
[51] = test system: DU-145
[52] = test system: ACHN
[53] = test system: BT-549

Which results are given for `Nc1nc2c(c(=O)[nH]1)C(c1ccccc1)CC(=O)N2` (stereo not drawn)?
GI50 [1]: > 100 µM (inactive); GI50 [2]: > 100 µM (inactive); GI50 [3]: > 100 µM (inactive); GI50 [4]: > 100 µM (inactive); GI50 [5]: > 100 µM (inactive); GI50 [6]: > 100 µM (inactive); GI50 [7]: > 100 µM (inactive); GI50 [8]: > 100 µM (inactive); GI50 [9]: > 100 µM; GI50 [10]: > 100 µM (inactive); GI50 [11]: > 100 µM (inactive); GI50 [12]: > 100 µM (inactive); GI50 [13]: > 100 µM (inactive); GI50 [14]: > 100 µM (inactive); GI50 [15]: > 100 µM (inactive); GI50 [16]: > 100 µM (inactive); GI50 [17]: > 100 µM (inactive); GI50 [18]: > 100 µM (inactive); GI50 [19]: > 100 µM (inactive); GI50 [20]: > 100 µM (inactive); GI50 [21]: > 100 µM (inactive); GI50 [22]: > 100 µM (inactive); GI50 [23]: > 100 µM (inactive); GI50 [24]: > 100 µM (inactive); GI50 [25]: > 100 µM (inactive); GI50 [26]: > 100 µM (inactive); GI50 [27]: > 100 µM (inactive); GI50 [28]: > 100 µM (inactive); GI50 [29]: > 100 µM (inactive); GI50 [30]: > 100 µM (inactive); GI50 [31]: > 100 µM (inactive); GI50 [32]: > 100 µM (inactive); GI50 [33]: > 100 µM (inactive); GI50 [34]: > 100 µM (inactive); GI50 [35]: > 100 µM (inactive); GI50 [36]: > 100 µM (inactive); GI50 [37]: > 100 µM (inactive); GI50 [38]: > 100 µM (inactive); GI50 [39]: > 100 µM (inactive); GI50 [40]: > 100 µM (inactive); GI50 [41]: > 100 µM (inactive); GI50 [42]: > 100 µM (inactive); GI50 [43]: > 100 µM (inactive); GI50 [44]: > 100 µM (inactive); GI50 [45]: > 100 µM (inactive); GI50 [46]: > 100 µM (inactive); GI50 [47]: > 100 µM (inactive); GI50 [48]: > 100 µM (inactive); GI50 [49]: > 100 µM (inactive); GI50 [50]: > 100 µM (inactive); GI50 [51]: > 100 µM (inactive); GI50 [52]: > 100 µM (inactive); GI50 [53]: > 100 µM (inactive)
